# Laboratory results: ChEMBL document CHEMBL4837257, “Discovery of the Oxadiazine FRM-024: A Potent CNS-Penetrant Gamma Secretase Modulator” (J Med Chem, 2021)
# Active and inactive are the calls of the source. The calls are words filed in the database; no cut-off is given here.
# Tests used:
# Cytochrome P450 3A4 [1] = molecular target: T1, Cytochrome P450 3A4 (Homo sapiens, UniProt P08684); assay: Inhibition of CYP3A4 (unknown origin); type: ADME
# [2] = In vivo modulation of gamma secretase in nonhuman primate assessed as reduction in Abeta40 levels in CSF at 30 mg/kg, po measured after 12 hrs by ELISA relative to control; type: functional, Primates, Cerebrospinal fluid; design: scale not given: the % may be the effect or the level left
# [3] = Clearance in nonhuman primate blood relative to hepatic blood flow; type: ADME, tissue-based; settings: primates
# [4] = Half life in nonhuman primate at 1 mg/kg, iv; type: ADME, organism-based; settings: primates, in vivo
# Rattus norvegicus [5] = assay: In vivo modulation of gamma secretase in rat assessed as reduction in Abeta42 levels in brain at 30 mg/kg, po measured at 16 hrs by ELISA relative to control; type: functional; design: scale not given: the % may be the effect or the level left
# [6] = Bioavailability in rat at 1 mg/kg, iv; type: ADME, organism-based; settings: in vivo
# [7] = Toxicity in guinea pig assessed as effect on signal conduction function in heart by Langendorff test; type: tissue-based, Cavia porcellus; settings: in vivo
# [8] = Clearance in rat at 1 mg/kg, iv; type: ADME, organism-based; settings: in vivo
# Cytochrome P450 1A2 [9] = molecular target: T2, Cytochrome P450 1A2 (Homo sapiens, UniProt P05177); assay: Inhibition of CYP1A2 in human hepatocytes upto 50 uM incubated for 72 hrs; type: ADME, cell-based, Hepatocyte
# T2 sequence (P05177 whole entry): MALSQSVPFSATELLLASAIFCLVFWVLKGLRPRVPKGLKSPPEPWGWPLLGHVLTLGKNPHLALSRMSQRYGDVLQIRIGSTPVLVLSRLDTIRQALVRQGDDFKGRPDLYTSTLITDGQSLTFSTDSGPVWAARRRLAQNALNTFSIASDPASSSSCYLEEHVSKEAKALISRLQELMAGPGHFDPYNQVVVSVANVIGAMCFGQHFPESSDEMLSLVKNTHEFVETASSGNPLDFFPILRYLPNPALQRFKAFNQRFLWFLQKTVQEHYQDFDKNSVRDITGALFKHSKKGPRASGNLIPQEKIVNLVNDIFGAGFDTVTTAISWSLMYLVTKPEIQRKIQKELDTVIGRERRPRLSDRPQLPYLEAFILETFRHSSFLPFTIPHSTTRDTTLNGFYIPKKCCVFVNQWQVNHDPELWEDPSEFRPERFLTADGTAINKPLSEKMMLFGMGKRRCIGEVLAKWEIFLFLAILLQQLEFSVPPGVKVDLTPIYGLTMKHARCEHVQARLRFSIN
# [10] = AUClast in rat at 3 mg/kg, po; type: ADME, organism-based; design: time 0 - last, route oral, dose 3 mg/kg; settings: in vivo
# [11] = Drug metabolism in human hepatocytes assessed as mono and di-oxidative metabolites formation after 4 hrs; type: ADME, cell-based, Hepatocyte
# [12] = Toxicity in guinea pig assessed as effect on inotropy and lusitropy in heart by Langendorff test; type: tissue-based, Cavia porcellus; settings: in vivo
# [13] = molecular target: Prostaglandin G/H synthase 1 (Homo sapiens) (UniProt P23219); assay: Effect on COX1 activity (unknown origin)
# Prostaglandin G/H synthase 1 (Homo sapiens), sequence (P23219 whole entry): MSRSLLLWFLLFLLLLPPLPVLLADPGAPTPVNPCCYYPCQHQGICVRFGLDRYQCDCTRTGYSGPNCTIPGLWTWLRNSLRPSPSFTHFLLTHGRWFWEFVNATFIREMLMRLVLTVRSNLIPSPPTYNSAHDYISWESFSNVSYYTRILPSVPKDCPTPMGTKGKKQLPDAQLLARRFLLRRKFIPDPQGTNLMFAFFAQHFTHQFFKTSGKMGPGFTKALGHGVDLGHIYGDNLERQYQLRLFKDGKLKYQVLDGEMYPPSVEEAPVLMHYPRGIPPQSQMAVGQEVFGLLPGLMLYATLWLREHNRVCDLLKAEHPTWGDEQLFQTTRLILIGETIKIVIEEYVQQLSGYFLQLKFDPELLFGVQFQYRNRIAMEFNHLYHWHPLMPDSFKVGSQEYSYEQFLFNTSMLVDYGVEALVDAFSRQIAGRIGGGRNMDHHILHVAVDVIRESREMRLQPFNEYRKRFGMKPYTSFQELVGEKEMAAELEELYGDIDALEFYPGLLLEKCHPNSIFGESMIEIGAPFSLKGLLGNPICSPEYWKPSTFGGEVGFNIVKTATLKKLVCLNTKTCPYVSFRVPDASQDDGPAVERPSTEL
# [14] = Toxicity in rat assessed as effect on arterial pressures by telemetry; settings: in vivo
# [15] = Clearance in nonhuman primate at 1 mg/kg, iv; type: ADME, organism-based; settings: primates, in vivo
# [16] = Apparent permeability across apical to basolateral side in human Caco2 cells; type: ADME, cell-based; settings: Caco-2
# Rattus norvegicus [17] = assay: In vivo modulation of gamma secretase in rat assessed as reduction in Abeta42 levels in brain at 30 mg/kg, po measured after 6 hrs by ELISA relative to control; type: functional; design: scale not given: the % may be the effect or the level left
# [18] = Genotoxicity in human peripheral blood lymphocytes by micronucleus assay; type: cell-based; settings: pbl
# Rattus norvegicus [19] = assay: In vivo modulation of gamma secretase in rat assessed as reduction in Abeta40 levels in CSF at 30 mg/kg, po measured at 9 hrs by ELISA relative to control; type: functional, Cerebrospinal fluid; design: scale not given: the % may be the effect or the level left
# [20] = Toxicity in rat assessed as effect on left ventricular filling pressures by telemetry; settings: in vivo
# [21] = Half life in dog at 0.5 mg/kg, iv; type: ADME, organism-based, Canis lupus familiaris; settings: in vivo
# Rattus norvegicus [22] = assay: In vivo modulation of gamma secretase in rat assessed as reduction in Abeta40 levels in brain by measuring AUC(0 to 24 hrs) at 30 mg/kg, po by ELISA; type: functional; design: scale not given: the % may be the effect or the level left
# [23] = Volume of distribution at steady state in nonhuman primate at 1 mg/kg, iv; type: ADME, organism-based; settings: primates, in vivo, read-out: Vdss
# [24] = AUClast in dog at 10 mg/kg, po; type: ADME, organism-based, Canis lupus familiaris; design: route oral, time 0 - last, dose 10 mg/kg; settings: in vivo
# Rattus norvegicus [25] = assay: In vivo modulation of gamma secretase in rat assessed as reduction in Abeta42 levels in CSF at 30 mg/kg, po measured after 6 hrs by ELISA relative to control; type: functional, Cerebrospinal fluid; design: scale not given: the % may be the effect or the level left
# Cytochrome P450 1A2 [26] = molecular target: T2, Cytochrome P450 1A2; assay: Inhibition of CYP1A2 (unknown origin); type: ADME
# Cytochrome P450 2B6 = molecular target: T3, Cytochrome P450 2B6 (Homo sapiens, UniProt P20813); assay: Inhibition of CYP2B6 in human hepatocytes upto 50 uM incubated for 72 hrs; type: ADME, cell-based, Hepatocyte
# T3 sequence (P20813 whole entry): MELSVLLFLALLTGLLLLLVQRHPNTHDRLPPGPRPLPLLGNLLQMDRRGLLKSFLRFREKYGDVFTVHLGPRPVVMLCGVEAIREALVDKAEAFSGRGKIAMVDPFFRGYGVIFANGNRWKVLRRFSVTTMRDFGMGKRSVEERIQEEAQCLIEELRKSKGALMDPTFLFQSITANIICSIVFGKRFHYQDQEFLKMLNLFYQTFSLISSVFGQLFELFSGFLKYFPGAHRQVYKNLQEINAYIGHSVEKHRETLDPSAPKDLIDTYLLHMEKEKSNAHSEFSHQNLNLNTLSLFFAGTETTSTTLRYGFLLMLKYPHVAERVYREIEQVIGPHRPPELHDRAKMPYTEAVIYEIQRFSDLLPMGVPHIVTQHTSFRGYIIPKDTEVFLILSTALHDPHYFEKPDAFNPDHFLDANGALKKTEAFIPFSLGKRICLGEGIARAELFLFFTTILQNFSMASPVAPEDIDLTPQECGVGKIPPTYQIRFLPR
# Rattus norvegicus [27] = assay: In vivo modulation of gamma secretase in rat assessed as reduction in Abeta40 levels in CSF by measuring AUC(0 to 24 hrs) at 30 mg/kg, po by ELISA; type: functional, Cerebrospinal fluid; design: scale not given: the % may be the effect or the level left
# [28] = Toxicity in guinea pig assessed as effect on ion channel function in heart by Langendorff test; type: tissue-based, Cavia porcellus; settings: in vivo
# [29] = Cmax in dog at 10 mg/kg, po; type: ADME, organism-based, Canis lupus familiaris; design: route oral, dose 10 mg/kg; settings: in vivo
# [30] = Bioavailability in dog at 0.5 mg/kg, iv; type: ADME, organism-based, Canis lupus familiaris; settings: in vivo
# [31] = Drug metabolism in dog hepatocytes assessed as mono and di-oxidative metabolites formation after 4 hrs; type: ADME, cell-based, Canis lupus familiaris, Hepatocyte
# Rattus norvegicus [32] = assay: In vivo modulation of gamma secretase in rat assessed as reduction in Abeta42 levels in brain by measuring AUC(0 to 24 hrs) at 30 mg/kg, po by ELISA; type: functional; design: scale not given: the % may be the effect or the level left
# [33] = Drug metabolism in monkey hepatocytes assessed as mono and di-oxidative metabolites formation after 4 hrs; type: ADME, cell-based, Macaca mulatta, Hepatocyte; settings: rhesus monkey
# [34] = Clearance in dog blood relative to hepatic blood flow; type: ADME, tissue-based, Canis lupus familiaris
# Rattus norvegicus [35] = assay: In vivo modulation of gamma secretase in rat assessed as reduction in Abeta42 levels in CSF by measuring AUC(0 to 24 hrs) at 30 mg/kg, po by ELISA; type: functional, Cerebrospinal fluid; design: scale not given: the % may be the effect or the level left
# Cytochrome P450 3A4 [36] = molecular target: T1, Cytochrome P450 3A4; assay: Inhibition of CYP3A4 in human hepatocytes upto 50 uM incubated for 72 hrs; type: ADME, cell-based, Hepatocyte
# [37] = Bioavailability in nonhuman primate at 1 mg/kg, iv; type: ADME, organism-based; settings: primates, in vivo
# T1 sequence (P08684 whole entry): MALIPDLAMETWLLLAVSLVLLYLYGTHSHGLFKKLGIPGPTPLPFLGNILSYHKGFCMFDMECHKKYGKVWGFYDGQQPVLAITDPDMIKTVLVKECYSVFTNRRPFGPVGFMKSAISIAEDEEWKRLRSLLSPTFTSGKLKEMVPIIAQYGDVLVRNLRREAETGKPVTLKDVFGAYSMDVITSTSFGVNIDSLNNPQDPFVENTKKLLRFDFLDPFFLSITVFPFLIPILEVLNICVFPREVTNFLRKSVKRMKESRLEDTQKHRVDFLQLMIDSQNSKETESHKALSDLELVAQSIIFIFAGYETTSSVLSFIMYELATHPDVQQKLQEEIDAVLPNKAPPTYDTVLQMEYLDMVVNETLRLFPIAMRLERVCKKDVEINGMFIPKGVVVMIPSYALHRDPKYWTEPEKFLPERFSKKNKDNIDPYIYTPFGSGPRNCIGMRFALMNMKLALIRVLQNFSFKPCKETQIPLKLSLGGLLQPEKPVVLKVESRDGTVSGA
compound,measurement,setting,value
COc1nc(C2=NOC(C3CC3)C(c3ccc(Cl)cc3)N2)ccc1-n1cnc(C)c1 (stereo not drawn),IC50,Cytochrome P450 3A4 [1],≥ 14 µM
same,Activity,[2],57%
same,CL,[3],< 20%
same,half-life,[4],3.9 h
same,Activity,Rattus norvegicus [5],50%
same,bioavailability,[6],86%
same,Activity,[7],Non-Toxic
same,clearance,[8],3.1 mL/min/kg
same,inhibition (INH),Cytochrome P450 1A2 [9],Not Active
same,AUC(0-t),[10],11.6 µM·h
same,Drug metabolism,[11],Metabolite_Detected
same,Activity,[12],Non-Toxic
same,Activity,[13],inactive
same,Activity,[14],Non-Toxic
same,clearance,[15],3.5 mL/min/kg
same,Papp A→B,[16],6.6 ×10⁻⁶ cm/s
same,Activity,Rattus norvegicus [17],56%
same,Activity,[18],Non-Toxic
same,Activity,Rattus norvegicus [19],67%
same,Activity,[20],Non-Toxic
same,half-life,[21],2.9 h
same,Activity,Rattus norvegicus [22],25%
same,Vd,[23],1.2 L/kg
same,AUC(0-t),[24],32.9 µM·h
same,Activity,Rattus norvegicus [25],88%
same,IC50,Cytochrome P450 1A2 [26],≥ 14 µM
same,inhibition (INH),Cytochrome P450 2B6,Not Active
same,Activity,Rattus norvegicus [27],48%
same,Activity,[28],Non-Toxic
same,Cmax,[29],4.03 µM
same,bioavailability,[30],66%
same,Drug metabolism,[31],Metabolite_Detected
same,Activity,Rattus norvegicus [32],39%
same,Drug metabolism,[33],Metabolite_Detected
same,CL,[34],< 20%
same,Activity,Rattus norvegicus [35],71%
same,inhibition (INH),Cytochrome P450 3A4 [36],Not Active
same,bioavailability,[37],113%
